In publication PMC13095408, “DBeQ derivative targets vacuolar protein sorting 4 functions in cancer cells and suppresses tumor growth in mice” (The Journal of Pharmacology and Experimental Therapeutics, 2025):

Key:
[1] = Human liver microsomal stability; format: in vitro ADME; details: Human liver microsomes, 1 μM of compound
Procedure: All in vitro absorption, distribution, metabolism, and excretion (ADME) studies were conducted by BioDuro-Sundia. […] Caco-2 permeability, human liver microsomal stability, and human plasma protein binding assays as well as liquid chromatography-mass spectrometry/mass spectrometry analyses were performed following standard protocols previously described in detail ([Kazakova et al, 2023]).

9464D s.c. tumors = test: 9464D syngeneic mouse model of neuroblastoma; format: in vivo; details: 5 mg/kg/day, i.p.
Procedure: To establish a syngeneic tumor mouse model, 9464D cells were resuspended in 50% Matrigel Matrix in 1× PBS at a concentration of […] and a total of 0.1 mL of this mixture (1 × 10^6 cells) was subcutaneously injected into the flank of each of the 6 to 8-week-old B6 mice (n = 19; 12 M, 7 F). Fourteen days after engraftment, mice began daily intraperitoneal administration of either vehicle (n = 9; 6 M, 3 F) or 5 mg/kg 4-107 (n = 10; 6 M, 4 F). Mouse tumor volume was measured weekly, then every 1–3 days once vehicle-treated tumors reached 1000–2000 mm^3. Tumor volume was calculated as πLW^2/6 using length (L) and width (W) caliper measurements. Mouse body weight was measured daily. Humane endpoints were defined as tumor volume reaching 4000 mm^3 or mice reaching the aforementioned toxicity endpoints, at which point the affected mice were euthanized. The experimental endpoint was determined as the time when the majority of tumors from the control group reached 4000 mm^3.

recombinant human VCP [2] = molecular target: T1, recombinant human VCP (Rattus norvegicus, UniProt P46462); test: VCP ATPase activity, EnzChek Phosphate assay; format: biochemical
T1 construct: His (N); host or cells: Escherichia coli BL21(DE3)
Procedure: (§1) VPS4B and VCP ATPase activities were measured using the EnzChek Phosphate assay for the quantification of released phosphate. Assay buffers were based on literature precedents ([Cupido et al, 2019], [2021]) as follows: VPS4B buffer (20 mM HEPES-KOH, pH 7.4, 25 mM KOAc, 2 mM MgCl2, 5 mM (NH4)2SO4, 0.5 mM CaCl2, 2.5 mM DTT, 0.1 mg/mL BSA, 0.005% v/v Triton X-100), VCP buffer (20 mM HEPES-NaOH, pH 7.4, 20 mM NaCl, 10 mM MgCl2, 5 mM (NH4)2SO4, 0.5 mM CaCl2, 2.5 mM DTT, 0.1 mg/mL BSA, 0.005% v/v Triton X-100). In black clear-bottom 384-well plates, 22.5 μL of 5% DMSO or 40× test compounds diluted in the respective assay buffer was added to each well. ATPases were diluted to 1 μM in the respective buffers containing 2× EnzChek Phosphate assay coupling reagents of 400 μM MESG and 2 U of PNP, then 25 μL was added to each well. Plates were mixed at 1000 rpm for 30 minutes at RT while being protected from light. The reaction was initiated by adding 2.5 μL of 20 mM MgATP or water followed by mixing at 1200 rpm for 30 seconds at RT. Plates were measured at 360 nm using a CLARIOstar plate reader (BMG LABTECH) for 20 minutes at 37 °C. ATPase activity was calculated as the amount of phosphate released over a 5-minute interval under linear initial velocity conditions. The remaining ATPase activity was calculated by normalizing compound-treated activity values to the DMSO control. IC50 was calculated by fitting normalized values to a sigmoidal dose-response curve with Hill slope = −1 using Graph Pad Prism 10.0.
(§2) To identify VPS4i, we developed enzyme- and cell-based VPS4 functional assays to serve as VPS4i-screening platforms. For the enzyme-based assay, we used the colorimetric EnzChek Phosphate assay that detects free phosphate with the advantage of continuous measurement of ATP hydrolysis over time. […] Due to the high sequence and structural similarity of AAA-ATPases, we also established a VCP ATPase assay to evaluate hit selectivity. […] For the cell-based assay, our approach was based on how VPS4 inhibition causes the accumulation of ESCRT-III ([Babst et al, 1998]; [Katoh et al, 2003]). We used an N-terminal GFP-tagged CHMP4B reporter system because it is the most abundant ESCRT-III subunit ([Katoh et al, 2004]; [Teis et al, 2008]). Our aim was to test compounds under short-term serum and amino acid starvation to stimulate ESCRT activity for easier detection of inhibitors ([Takahashi et al, 2018], [2019]). […] Overall, we established 2 systems for VPS4i screening, a VPS4B ATPase activity assay and a GFP-CHMP4B accumulation cell-based assay.

recombinant human VCP [3] = molecular target: T2, recombinant human VCP; test: VCP ATPase activity, EnzChek Phosphate assay; format: biochemical; details: 0.5 μM enzyme
T2 construct: His (N); host or cells: Escherichia coli BL21(DE3)
Procedure: as §1, §2

Acute dose MTD study = details: both sexes, C57BL/6J, mouse, in vivo, ip, fixed daily doses 5, 10, 15, 20 mg/kg, B6 mice; read-out: acute dose MTD (tolerated dose)
Procedure: All animal studies were performed in accordance with the guidelines of the Institutional Animal Care and Use Committee at the Penn State College of Medicine (IACUC # PRAMS201145989). To determine the maximum tolerated dose (MTD) of 4-107, escalating and acute dose studies were performed. The escalating MTD study used an intra-animal design where each mouse received daily doses of 4-107 that increased 50% each day from a starting dose of 5 mg/kg. Six female C57BL/6J (B6) (The Jackson Laboratory; 000664) were administered 4-107 either orally via oral gavage or via intraperitoneal injection with 3 mice per group. The acute MTD study had groups of mice receive daily consistent doses of 4-107 i.p. Here, B6 mice were administered 4-107 at either 5 (n = 4; 2 males [M], 2 females [F]), 10 (n = 4; 2 M, 2 F), 15 (n = 5; all M), or 20 mg/kg (n = 5; all M). In both studies, 4-107 dissolved in DMSO was mixed into 30% propylene glycol, 5% Tween 80, and 65% of 5% dextrose in water (PTD [vehicle]) with a final DMSO concentration of ≤ 3%. […] BCS was determined by posture and prominence of skeletal features upon visual inspection and palpation, where BCS < 2 indicated a hunched posture and emaciation. […] The MTD was determined as the highest dose of 4-107 administered without mice reaching the toxicity endpoints.

T1 sequence (P46462 2-806 limits assumed): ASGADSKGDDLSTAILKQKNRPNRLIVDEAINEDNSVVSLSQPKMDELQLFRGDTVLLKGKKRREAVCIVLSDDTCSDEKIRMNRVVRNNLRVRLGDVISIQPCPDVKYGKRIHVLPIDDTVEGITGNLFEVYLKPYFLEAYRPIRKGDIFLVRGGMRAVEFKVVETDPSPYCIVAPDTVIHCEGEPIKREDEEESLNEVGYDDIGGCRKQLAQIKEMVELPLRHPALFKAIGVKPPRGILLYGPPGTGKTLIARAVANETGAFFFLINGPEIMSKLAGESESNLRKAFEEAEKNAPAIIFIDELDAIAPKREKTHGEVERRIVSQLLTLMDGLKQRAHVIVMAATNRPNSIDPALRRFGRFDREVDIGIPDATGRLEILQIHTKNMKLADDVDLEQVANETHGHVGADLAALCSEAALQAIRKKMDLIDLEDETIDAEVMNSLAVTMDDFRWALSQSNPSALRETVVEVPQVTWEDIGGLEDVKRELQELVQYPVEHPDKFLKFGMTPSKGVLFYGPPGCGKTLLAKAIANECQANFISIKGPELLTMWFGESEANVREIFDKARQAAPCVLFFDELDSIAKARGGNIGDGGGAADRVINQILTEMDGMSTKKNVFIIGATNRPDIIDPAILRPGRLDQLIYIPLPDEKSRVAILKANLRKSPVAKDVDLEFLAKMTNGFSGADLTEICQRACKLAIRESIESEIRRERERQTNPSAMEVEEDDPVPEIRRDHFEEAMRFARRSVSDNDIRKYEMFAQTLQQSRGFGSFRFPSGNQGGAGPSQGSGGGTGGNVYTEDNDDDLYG
T2 sequence (P46462 2-806 limits assumed): as above

With `COc1cccc2c(NCc3ccccc3)nc(NCc3ccccc3)nc12` [Compound 4-107, N^2,N^4-dibenzyl-8-methoxyquinazoline-2,4-diamine] the “Liver microsomal stability, remaining after 1 h” value [1] was 71.83%, the microsomal CLint at 1 μM ([1]; read-out: In vitro intrinsic clearance, Clint) was 11.8 µL/min/mg and the half-life at 1 μM ([1]; read-out: Liver microsomal stability, T1/2) was 1.95 h. For the same compound, the tumor growth (9464D s.c. tumors; from day 14 after engraftment, B6 mice) was “significantly reduced tumor growth”, the “mice that tolerated treatment” value (9464D s.c. tumors; tumor-bearing B6 mice) was 7 of 10 and the “VCP ATPase (% DMSO)” value (recombinant human VCP [2]; remaining ATPase activity, screened at 5 μM, mean ± SD, Table 2) was 68.48 ± 2.85 % DMSO. The “VCP ATPase (% DMSO)” value (recombinant human VCP [2]; screened at 5 µM, mean ± S.D., Supplemental Table 2) was 68.48 ± 2.02 % DMSO, the IC50 (recombinant human VCP [3]) was 8.6 ± 3.9 µM and the MTD (Acute dose MTD study) was 5 mg/kg.
